Source: ChEMBL document CHEMBL3272309, “Potential central nervous system antitumor agents. Aziridinylbenzoquinones. 1” (J Med Chem, 1976)

Tests used:
[1] = Therapeutic ratio, ratio of highest active dose to lowest active for antitumor activity against in ip dosed mouse allografted with mouse B16 cells; assay type: ADME, organism-based; settings: in vivo, read-out: TI
Mus musculus [2] = experiment: Toxicity in mouse allografted with mouse LLC cells at 4 mg/kg, ip qd administered from day 5 to 15 post sc tumor-implantation; assay type: organism-based; design: dose 4 mg/kg; settings: in vivo
L1210 [3] = experiment: Antitumor activity against mouse L1210 cells allografted in mouse assessed as mouse survival at 6.25 mg/kg, ip qd administered from day 1 to 9 post ip tumor-implantation relative to control; assay type: functional; settings: route intraperitoneal
[4] = Antitumor activity against mouse ependymoblastoma cells allografted in mouse assessed as change in body weight at 0.25 mg/kg, ip qd administered from day 1 to 5 post intracerebral tumor-implantation measured on day 5 relative to control; assay type: functional; settings: route intraperitoneal
L1210 [5] = experiment: Antitumor activity against mouse L1210 cells allografted in mouse assessed as mouse survival at 4.6 mg/kg, ip qd administered from day 1 to 9 post ip tumor-implantation relative to control; assay type: functional; settings: route intraperitoneal
[6] = Antitumor activity against mouse ependymoblastoma cells allografted in mouse assessed as change in body weight at 8 mg/kg, ip qd administered from day 1 to 5 post intracerebral tumor-implantation measured on day 5 relative to control; assay type: functional; settings: route intraperitoneal
[7] = Therapeutic ratio, ratio of highest active dose to lowest active for antitumor activity against in ip dosed mouse allografted with mouse LLC cells; assay type: organism-based, Lewis lung carcinoma; settings: in vivo, read-out: TI
L1210 [8] = experiment: Antitumor activity against mouse L1210 cells allografted in mouse assessed as change in body weight at 0.88 mg/kg, ip qd administered from day 1 to 9 post ip tumor-implantation measured on day 5 relative to control; assay type: functional; settings: route intraperitoneal
L1210 [9] = experiment: Antitumor activity against mouse L1210 cells allografted in ip dosed mouse assessed as optimum dose administered qd on day 1, 5 and 9; assay type: functional
Mus musculus [10] = experiment: Toxicity in mouse allografted with mouse P388 cells at 6.25 mg/kg, ip qd administered from day 1 to 9 post intracerebral tumor-implantation; assay type: organism-based; design: dose 6.25 mg/kg, route intraperitoneal; settings: in vivo
L1210 [11] = experiment: Antitumor activity against mouse L1210 cells allografted in mouse assessed as mouse survival at 6.25 mg/kg, ip qd administered from day 1 to 9 post intracerebral tumor-implantation relative to control; assay type: functional; settings: route intraperitoneal
P388 [12] = experiment: Antitumor activity against mouse P388 cells allografted in mouse assessed as change in body weight at 6.25 mg/kg, ip qd administered from day 1 to 9 post intracerebral tumor-implantation measured on day 5 relative to control; assay type: functional; settings: route intraperitoneal
L1210 [13] = experiment: Antitumor activity against mouse L1210 cells allografted in mouse assessed as change in body weight at 6.25 mg/kg, ip qd administered from day 1 to 9 post intracerebral tumor-implantation measured on day 5 relative to control; assay type: functional; settings: route intraperitoneal
P388 [14] = experiment: Antitumor activity against mouse P388 cells allografted in mouse assessed as change in body weight at 3.12 mg/kg, ip qd administered from day 1 to 9 post ip tumor-implantation measured on day 5 relative to control; assay type: functional; settings: route intraperitoneal
[15] = system: Lewis lung carcinoma cell line; experiment: Antitumor activity against mouse LLC cells allografted in mouse assessed as change in body weight at 4 mg/kg, ip qd administered from day 5 to 15 post sc tumor-implantation measured on day 5 relative to control; assay type: functional; settings: route subcutaneous
B16 [16] = experiment: Antitumor activity against mouse B16 cells allografted in mouse assessed as change in body weight at 6.25 mg/kg, ip qd administered from day 1 to 9 post ip tumor-implantation measured on day 5 relative to control; assay type: functional; settings: route intraperitoneal
[17] = Antitumor activity against mouse ependymoblastoma cells allografted in mouse assessed as mouse survival at 4 mg/kg, ip qd administered from day 1 to 5 post intracerebral tumor-implantation relative to control; assay type: functional; settings: route intraperitoneal
P388 [18] = experiment: Antitumor activity against mouse P388 cells allografted in mouse assessed as change in body weight at 0.39 mg/kg, ip qd administered from day 1 to 9 post intracerebral tumor-implantation measured on day 5 relative to control; assay type: functional; settings: route intraperitoneal
P388 [19] = experiment: Antitumor activity against mouse P388 cells allografted in mouse assessed as change in body weight at 1.56 mg/kg, ip qd administered from day 1 to 9 post intracerebral tumor-implantation measured on day 5 relative to control; assay type: functional; settings: route intraperitoneal
P388 [20] = experiment: Antitumor activity against mouse P388 cells allografted in mouse assessed as mouse survival at 3.12 mg/kg, ip qd administered from day 1 to 9 post ip tumor-implantation relative to control; assay type: functional; settings: route intraperitoneal
L1210 [21] = experiment: Antitumor activity against mouse L1210 cells allografted in mouse assessed as mouse survival at 1.56 mg/kg, ip qd administered from day 1 to 9 post intracerebral tumor-implantation relative to control; assay type: functional; settings: route intraperitoneal
B16 [22] = experiment: Antitumor activity against mouse B16 cells allografted in mouse assessed as mouse survival at 0.78 mg/kg, ip qd administered from day 1 to 9 post ip tumor-implantation relative to control; assay type: functional; settings: route intraperitoneal
B16 [23] = experiment: Antitumor activity against mouse B16 cells allografted in mouse assessed as mouse survival at 1.56 mg/kg, ip qd administered from day 1 to 9 post ip tumor-implantation relative to control; assay type: functional; settings: route intraperitoneal
[24] = system: Lewis lung carcinoma cell line; experiment: Antitumor activity against mouse LLC cells allografted in mouse assessed as mouse survival at 2 mg/kg, ip qd administered from day 5 to 15 post sc tumor-implantation relative to control; assay type: functional; settings: route subcutaneous
P388 [25] = experiment: Antitumor activity against mouse P388 cells allografted in mouse assessed as mouse survival at 0.78 mg/kg, ip qd administered from day 1 to 9 post intracerebral tumor-implantation relative to control; assay type: functional; settings: route intraperitoneal
P388 [26] = experiment: Antitumor activity against mouse P388 cells allografted in mouse assessed as change in body weight at 0.78 mg/kg, ip qd administered from day 1 to 9 post ip tumor-implantation measured on day 5 relative to control; assay type: functional; settings: route intraperitoneal
L1210 [27] = experiment: Antitumor activity against mouse L1210 cells allografted in mouse assessed as change in body weight at 4.6 mg/kg, ip qd administered from day 1 to 9 post ip tumor-implantation measured on day 5 relative to control; assay type: functional; settings: route intraperitoneal
L1210 [28] = experiment: Antitumor activity against mouse L1210 cells allografted in mouse assessed as mouse survival at 0.88 mg/kg, ip qd administered from day 1 to 9 post ip tumor-implantation relative to control; assay type: functional; settings: route intraperitoneal
Mus musculus [29] = experiment: Toxicity in mouse allografted with mouse L1210 cells at 12.5 mg/kg, ip qd administered from day 1 to 9 post ip tumor-implantation; assay type: organism-based; design: dose 12.5 mg/kg, route intraperitoneal; settings: in vivo
[30] = system: Lewis lung carcinoma cell line; experiment: Antitumor activity against mouse LLC cells allografted in mouse assessed as change in body weight at 2 mg/kg, ip qd administered from day 5 to 15 post sc tumor-implantation measured on day 5 relative to control; assay type: functional; settings: route subcutaneous
[31] = Antitumor activity against mouse ependymoblastoma cells allografted in mouse assessed as mouse survival at 0.5 mg/kg, ip qd administered from day 1 to 5 post intracerebral tumor-implantation relative to control; assay type: functional; settings: route intraperitoneal
[32] = Therapeutic ratio in ip dosed mouse allografted with mouse ependymoblastoma cells; assay type: ADME, organism-based; settings: in vivo, read-out: TI
[33] = system: Lewis lung carcinoma cell line; experiment: Antitumor activity against mouse LLC cells allografted in mouse assessed as change in body weight at 1 mg/kg, ip qd administered from day 5 to 15 post sc tumor-implantation measured on day 5 relative to control; assay type: functional; settings: route subcutaneous
B16 [34] = experiment: Antitumor activity against mouse B16 cells allografted in mouse assessed as change in body weight at 0.78 mg/kg, ip qd administered from day 1 to 9 post ip tumor-implantation measured on day 5 relative to control; assay type: functional; settings: route intraperitoneal

**Q.** Which selectivity ratio [1] does the source give for `CCOC(=O)NC1=C(N2CC2)C(=O)C(NC(=O)OCC)=C(N2CC2)C1=O` [DIAZIQUONE] here?
**A.** 3

**Q.** And the Activity (Mus musculus [2])?
**A.** Toxic

**Q.** And the T/C (L1210 [3])?
**A.** 127%

**Q.** And the Activity [4]?
**A.** -1.5 g

**Q.** And the T/C (L1210 [5])?
**A.** 98%

**Q.** What about the Activity [6] of the same compound?
**A.** -5 g

**Q.** What about the selectivity ratio [7] of the same compound?
**A.** 3

**Q.** What about the Activity (L1210 [8]) of the same compound?
**A.** -1.4 g

**Q.** What about the Activity (L1210 [9]) of the same compound?
**A.** 6.25 mg/kg

**Q.** What about the Activity (Mus musculus [10]) of the same compound?
**A.** Toxic

**Q.** What about the T/C (L1210 [11]) of the same compound?
**A.** 103%

**Q.** What about the Activity (P388 [12]) of the same compound?
**A.** -2.8 g

**Q.** What about the Activity (L1210 [13]) of the same compound?
**A.** -2.8 g

**Q.** What about the Activity (P388 [14]) of the same compound?
**A.** -4.1 g

**Q.** And the Activity [15]?
**A.** -0.1 g

**Q.** What about the Activity (B16 [16]) of the same compound?
**A.** -4.4 g

**Q.** What about the T/C [17] of the same compound?
**A.** 376%

**Q.** What about the Activity (P388 [18]) of the same compound?
**A.** -0.7 g

**Q.** What about the Activity (P388 [19]) of the same compound?
**A.** -1.1 g

**Q.** And the T/C (P388 [20])?
**A.** 100%

**Q.** And the T/C (L1210 [21])?
**A.** 146%

**Q.** And the T/C (B16 [22])?
**A.** 113%

**Q.** And the T/C (B16 [23])?
**A.** 138%

**Q.** And the T/C [24]?
**A.** 134%

**Q.** What about the T/C (P388 [25]) of the same compound?
**A.** 125%

**Q.** What about the Activity (P388 [26]) of the same compound?
**A.** -2.4 g

**Q.** What about the Activity (L1210 [27]) of the same compound?
**A.** -4.6 g

**Q.** And the T/C (L1210 [28])?
**A.** 132%

**Q.** What about the Activity (Mus musculus [29]) of the same compound?
**A.** Toxic

**Q.** And the Activity [30]?
**A.** 0.3 g

**Q.** And the T/C [31]?
**A.** 162%

**Q.** And the selectivity ratio [32]?
**A.** 4

**Q.** And the Activity [33]?
**A.** -0.1 g

**Q.** What about the Activity (B16 [34]) of the same compound?
**A.** -2.2 g
